Each molecule was assayed on production of TNF by monocytes activated with bacterial lipopolysaccharide (LPS) (assay: Lipopolysaccharide-activated monocyte TNF production assay). Settings: Homo sapiens; whole blood monocyte assay (LPS induced TNF release).
Type: cell-based
Procedure: Test compounds were evaluated in vitro for the ability to inhibit the production of TNF by monocytes activated with bacterial lipopolysaccharide (LPS). Fresh residual source leukocytes (a byproduct of plateletpheresis) were obtained from a local blood bank, and peripheral blood mononuclear cells (PBMCs) were isolated by density gradient centrifugation on Ficol-Paque Plus (Pharmacia). PBMCs were suspended at 2×10^6/mL in DMEM supplemented to contain 2% FCS, 10 mM, 0.3 mg/mL […], 100 U/mL penicillin G and […] streptomycin sulfate (complete media). Cells were plated into Falcon flat bottom, 96 well culture plates (200 μL/well) and cultured overnight at 37° C. and 6% CO2. Non-adherent cells were removed by washing with 200 μl/well of fresh medium.
Test compounds were dissolved in […]. Compound stock solutions were prepared to an initial concentration of […]. Stocks were diluted initially to 20-200 μM in complete media. Nine two-fold serial dilutions of each compound were then prepared in complete medium.
One hundred microliters of each test compound dilution were added to microtiter wells containing adherent monocytes and 100 μL complete medium. Monocytes were cultured with test compounds for 60 min at which time 25 μL of complete medium containing 30 ng/mL lipopolysaccharide from E. coli K532 were added to each well. Cells were cultured an additional 4 hrs. Culture supernatants were then removed and TNF presence in the supernatants was quantified using an ELISA.
Flat bottom, 96 well Corning High Binding ELISA plates were coated overnight (4° C.) with 150 μL/well of 3 μg/mL murine anti-human TNF-α MAb (R&D Systems #MAB210). Wells were then blocked for 1 h at room temperature with 200 μL/well of CaCl2-free ELISA buffer supplemented to contain 20 mg/mL BSA (standard ELISA buffer: […], 150 mM NaCl, 2 mM CaCl2, 0.15 mM thimerosal, pH 7.4). Plates were washed and replenished with 100 μL of test supernatants (diluted 1:3) or standards. Standards consisted of eleven 1.5-fold serial dilutions from a stock of I ng/mL recombinant human TNF (R&D Systems). Plates were incubated at room temperature for 1 h on orbital shaker (300 rpm), washed and replenished with 100 μL/well of 0.5 μg/mL goat anti-human TNF-α (R&D systems #AB-210-NA) biotinylated at a 4:1 ratio. Plates were incubated for 40 min, washed and replenished with 100 μL/well of alkaline phosphatase-conjugated streptavidin (Jackson ImmunoResearch #016-050-084) at 0.02 μg/mL. Plates were incubated 30 min, washed and replenished with 200 μL/well of 1 mg/mL of p-nitrophenyl phosphate. After 30 min, plates were read at 405 nm on a Vmax plate reader.
Standard curve data were fit to a second order polynomial and unknown TNF-α concentrations determined from their OD by solving this equation for concentration. TNF concentrations were then plotted vs. test compound concentration using a second order polynomial. This equation was then used to calculate the concentration of test compounds causing a 50% reduction in TNF production.

Compound | IC50
Cc1ccc(-c2nnn[nH]2)cc1-c1ccc2c(N3CCOCC3)nncc2c1 [Example 77, 6-[2-Methyl-5-(1H-tetraazol-5-yl)phenyl]-1-morpholin-4-ylphthalazine] | ≤ 5 µM
Cc1ccc(C(=O)NC2CC2)cc1-c1ccc2c(C#N)nncc2c1 [Example 79, 3-(1-cyanophthalazin-6-yl)-N-cyclopropyl-4-methylbenzamide] | ≤ 5 µM
Cc1sc(C(=O)NC2CC2)cc1-c1ccc2c(N3CCOCC3)nncc2c1 [Example 80, N-Cyclopropyl-5-methyl-4-(1-morpholin-4-ylphthalazin-6-yl)thiophene-2-carboxamide] | ≤ 5 µM
Cc1ccc(C(N)=O)cc1-c1ccc2c(N3CCOC[C@H]3C)nncc2c1 [Example 82, 4-Methyl-3-{1-[(3R)-3-methylmorpholin4-yl]phthalazin-6-yl}benzamide] | ≤ 5 µM
Cc1ccc(C(=O)NC2CC2)cc1-c1ccc2c(C(N)=O)nncc2c1 [Example 83, 6-{5-[(Cyclopropylamino)carbonyl]-2-methylphenyl}phthalazine-1-carboxamide] | ≤ 5 µM
CC(=O)c1nnc(C)c2cc(-c3cc(C(=O)NC4CC4)ccc3C)ccc12 [Example 84, 3-(1-Acetyl-4-methylphthalazin-6-yl)-N-cyclopropyl-4-methylbenzamide] | ≤ 5 µM
Cc1ccc(C(=O)NC2CC2)cc1-c1ccc2c(C(=O)N3CCOCC3)nncc2c1 [Example 85, N-Cyclopropyl-4-methyl-3-[1-(morpholin-4-ylcarbonyl)phthalazin-6-yl]benzamide] | ≤ 5 µM
Cc1ccc(C(N)=O)cc1-c1ccc2c(N3CCCC3=O)nncc2c1 [Example 94, 4-methyl-3-(1-(2-oxopyrrolidine-1-yl)phthalazin-6-yl)benzamide] | ≤ 5 µM
Cc1ccc(C(N)=O)cc1-c1ccc2c(-c3ccc(S(C)(=O)=O)cc3C)nncc2c1 [Example 96, 4-methyl-3-(1-(2-methyl-4-(methylsulfonyl)phenyl)phthalazin-6-yl)benzamide] | ≤ 5 µM
Cc1ccc(C(=O)NC2CC2)cc1-c1ccc2c(N3CCCC[C@@H]3C)nncc2c1 [Example 97, N-cyclopropyl-4-methyl-3-{1-[(2S)-2-methylpiperidin-1-yl]phthalazin-6-yl}benzamide] | ≤ 5 µM
Cc1ccc(C(=O)NC2CC2)cc1-c1ccc2c(-c3ccccc3C(N)=O)nncc2c1 [Example 98, 3-(1-(2-(aminocarbonyl)phenyl)-6-phthalazinyl)-N-cyclopropyl-4-methylbenzamide] | ≤ 5 µM
Cc1ccc(C(=O)NC2CC2)cc1-c1ccc2c(N3CCN4C(=O)OC[C@H]4C3)nncc2c1 [Example 99, 3-{1-[(8aR)-3-oxotetrahydro[1,3]oxazolo[3,4-a]pyrazin-7(1H)-yl]phthalazin-6-yl}-N-cyclopropyl-4-methylbenzamide] | ≤ 5 µM
Cc1ccc(C(=O)NC2CC2)cc1-c1ccc2c(N3CCNC(=O)[C@H]3C)nncc2c1 [Example 100, N-cyclopropyl-4-methyl-3-{1-[(2R)-2-methyl-3-oxopiperazin-1-yl]phthalazin-6-yl}benzamide] | ≤ 5 µM
Cc1ccc(C(=O)NC2CC2)cc1-c1ccc2c(N3CCN4C(=O)OC[C@@H]4C3)nncc2c1 [Example 101, 3-{1-[(8aS)-3-oxotetrahydro[1,3]oxazolo[3,4-a]pyrazin-7(1H)-yl]phthalazin-6-yl}-N-cyclopropyl-4-methylbenzamide] | ≤ 5 µM
Cc1ccc(C(=O)NC2CC2)cc1-c1ccc2c(N3CCN4C(=O)CC[C@H]4C3)nncc2c1 [Example 102, 3-{1-[(8aS)-6-oxohexahydropyrrolo[1,2-a]pyrazin-2(1H)-yl]phthalazin-6-yl}-N-cyclopropyl-4-methylbenzamide] | ≤ 5 µM
Cc1ccc(C(=O)NC2CC2)cc1-c1ccc2c(N3CCc4c(O)n[nH]c4C3)nncc2c1 [Example 103, N-cyclopropyl-3-(1-(3-hydroxy-4,5-dihydro-1H-pyrazolo[3,4-c]pyridin-6(7H)-yl)phthalazin-6-yl)-4-methylbenzamide] | ≤ 5 µM
Cc1ccc(C(=O)NC2CC2)cc1-c1ccc2c(N3CCn4c(nnc4C(F)(F)F)C3)nncc2c1 [Example 104, N-cyclopropyl-4-methyl-3-(1-(3-(trifluoromethyl)-5,6-dihydro-[1,2,4]triazolo[4,3-a]pyrazin-7(8H)-yl)phthalazin-6-yl)benzamide] | ≤ 5 µM

Compound | IC50
Cc1ccc(C(=O)NC2CC2)cc1-c1ccc2c(N3CCCC3C)nncc2c1 (stereo not drawn) [Example 105, N-cyclopropyl-4-methyl-3-(1-(2-methylpyrrolidin-1-yl)phthalazin-6-yl)benzamide] | ≤ 5 µM
Cc1ccc(S(N)(=O)=O)cc1-c1ccc2c(N3CCOCC3)nncc2c1 [Example 106, 4-Methyl-3-(1-morpholinophthalazin-6-yl)benzenesulfonamide] | ≤ 5 µM
Cc1ccc(C(=O)Nc2ccon2)cc1-c1ccc2c(N3CCOCC3)nncc2c1 [Example 108, N-(Isoxazol-3-yl)-4-methyl-3-(1-morpholinophthalazin-6-yl)benzamide] | ≤ 5 µM
Cc1ccc(C(=S)NC2CC2)cc1-c1ccc2c(N3CCOCC3)nncc2c1 [Example 109, N-Cyclopropyl-4-methyl-3-(1-morpholinophthalazin-6-yl)benzothioamide] | ≤ 5 µM
Cc1ccc(C(=O)NC2CC2)cc1-c1ccc2c(N3CCNC[C@H]3C)nncc2c1 [Example 110, N-cyclopropyl-4-methyl-3-{1-[(2R)-2-methylpiperazin-1-yl]phthalazin-6-yl}benzamide] | ≤ 5 µM
Cc1ccc(C(=O)NC2CC2)cc1-c1ccc2c(NCCN3CCOCC3)nncc2c1 [Example 111, N-cyclopropyl-4-methyl-3-{1-[(2-morpholin-4-ylethyl)amino]phthalazin-6-yl}benzamide] | ≤ 5 µM
Cc1ccc(C(=O)NC2CC2)cc1-c1ccc2c(N3C[C@@H](C)OC[C@@H]3C)nncc2c1 [Example 112, N-cyclopropyl-3-{1-[(2R,5S)-2,5-dimethylmorpholin-4-yl]phthalazin-6-yl}-4-methylbenzamide] | ≤ 5 µM
Cc1cnc(C(=O)NC2CC2)cc1-c1ccc2c(N3C[C@@H](C)OC[C@H]3C)nncc2c1 [Example 113, N-cyclopropyl-4-{1-[(2R,5R)-2,5-dimethylmorpholin-4-yl]phthalazin-6-yl}-5-methylpyridine-2-carboxamide] | ≤ 5 µM
Cc1ccc(C(=O)NC2CC2)cc1-c1ccc2c(N3CCC(C(N)=O)CC3)nncc2c1 [Example 114, 1-(6-{5-[(cyclopropylamino)carbonyl]-2-methylphenyl}phthalazin-1-yl)piperidine-4-carboxamide] | ≤ 5 µM
Cc1ccc(C(N)=O)cc1-c1ccc2c(N3C[C@@H]4C[C@H]3CO4)nncc2c1 [Example 115, 4-methyl-3-{1-[(1S,4S)-2-oxa-5-azabicyclo[2.2.1]hept-5-yl]phthalazin-6-yl}benzamide] | ≤ 5 µM
Cc1ccc(C(N)=O)cc1-c1ccc2c(N3CCNC(=O)C3)nncc2c1 [Example 116, 4-methyl-3-[1-(3-oxopiperazin-1-yl)phthalazin-6-yl]benzamide] | ≤ 5 µM
CCNC(=O)c1ccc(C)c(-c2ccc3c(NC(C)C)nncc3c2)c1 [Example 117, N-ethyl-3-[1-(isopropylamino)phthalazin-6-yl]-4-methylbenzamide] | ≤ 5 µM
COc1nncc2cc(-c3cc(C(N)=O)ccc3C)ccc12 [Example 118, 3-(1-methoxyphthalazin-6-yl)-4-methylbenzamide] | ≤ 5 µM
Cc1ccc(C(N)=O)cc1-c1ccc2c(N3C[C@H](C)OC[C@@H]3C)nncc2c1 [Example 119, 3-{1-[(2S,5S)-2,5-dimethylmorpholin-4-yl]phthalazin-6-yl}-4-methylbenzamide] | ≤ 5 µM
Cc1ccc(C(=O)NC2CC2)cc1-c1ccc2c(N3C[C@@H]4C[C@H]3CO4)nncc2c1 [Example 120, N-cyclopropyl-4-methyl-3-{1-[(1S,4S)-2-oxa-5-azabicyclo[2.2.1]hept-5-yl]phthalazin-6-yl}benzamide] | ≤ 5 µM
Cc1cc(C)c(-c2nncc3cc(-c4cc(C(=O)NC5CC5)ccc4C)ccc23)c(C)c1 [Example 121, N-cyclopropyl-3-(1-mesitylphthalazin-6-yl)-4-methylbenzamide] | ≤ 5 µM

— patent publication US7759337B2, “Phthalazine compounds and methods of use” (Amgen Inc., priority 2005, dated 2010)
